Measurements published in patent publication US8088930B2, “Benzimidazole derivatives” (Hoffmann-La Roche Inc., priority 2008, dated 2012).

biological target: T1, FXR ligand binding domain (GST-FXR LBD fusion protein, human FXR aa 193-473) (Homo sapiens, UniProt Q96RI1); test: Radioligand binding assay (scintillation proximity, radioligand displacement); conditions: 40 nM GST-FXR LBD on SPA beads, test compound 6×10^−9 M to 2.5×10^−5 M, read-out: h-IC50 Binding
T1 construct: fused on or other part: Glutathione-S-transferase (GST) fused N-terminally to the FXR LBD, used to capture the protein on glutathione SPA beads
T1 sequence (Q96RI1 211-486 limits assumed): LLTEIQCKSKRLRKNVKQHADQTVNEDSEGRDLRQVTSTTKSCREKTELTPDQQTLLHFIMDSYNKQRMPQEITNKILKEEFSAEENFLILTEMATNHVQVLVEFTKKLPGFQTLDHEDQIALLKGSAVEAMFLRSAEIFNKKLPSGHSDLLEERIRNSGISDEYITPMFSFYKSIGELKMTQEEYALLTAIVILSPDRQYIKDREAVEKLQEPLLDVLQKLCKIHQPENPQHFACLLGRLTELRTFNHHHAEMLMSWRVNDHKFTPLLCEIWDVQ
Summary of the method: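 40 nM GST-FXR LBD, E. coli-expressed, bound to glutathione yttrium silicate SPA beads in 50 mM Hepes pH 7.4, 10 mM NaCl, 5 mM MgCl2, 0.01% CHAPS. Test compounds displace radioligand (e.g. 20 nM benzimidazolyl-acetamide ligand); bound ligand measured by scintillation proximity counting.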

Row | Compound | IC50 [nM]
1 | O=C(O)c1ccc(COCC(C2CCCCC2)n2c(-c3ccc(Cl)cc3)nc3cc(F)c(F)cc32)c(F)c1 (single isomer, unassigned; (+)) [Example 64, (+)-4-{2-[2-(4-Chloro-phenyl)-5,6-difluoro-benzoimidazol-yl]-2-cyclohexyl-ethoxymethyl}-3-fluoro-benzoic] | 300
2 | CC(C)(Oc1ccc(OCC(C2CCCCC2)n2c(-c3ccc(Cl)cc3)nc3cc(F)c(F)cc32)c(F)c1)C(=O)O (stereo not drawn) [Example 94, 2-(4-{2-[2-(4-Chloro-phenyl)-5,6-difluoro-benzoimidazol-1-yl]-2-cyclohexyl-ethoxy}-3-fluoro-phenoxy)-2-methyl-propionic acid] | 100
3 | Cc1c(OCC(C2CCCCC2)n2c(-c3ccc(Cl)cc3)nc3cc(F)c(F)cc32)ccc(OC(C)(C)C(=O)O)c1C (stereo not drawn) [Example 93, 2-(4-{2-[2-(4-Chloro-phenyl)-5,6-difluoro-benzoimidazol-1-yl]-2-cyclohexyl-ethoxy}-2,3-dimethyl-phenoxy)-2-methyl-propionic acid] | 300
4 | Cc1cc(C(=O)O)cc(C)c1OCC(C1CCCCC1)n1c(-c2ccc(Cl)cc2)nc2cc(F)c(F)cc21 (single isomer, unassigned; (+)) [Example 54, (+)-4-{2-[2-(4-Chloro-phenyl)-5,6-difluoro-benzoimidazol-1-yl]-2-cyclohexyl-ethoxy}-3,5-dimethyl-benzoic acid] | 100
5 | COc1ccc(-c2nc3cc(F)c(F)cc3n2C(COc2ccc(C(=O)O)cc2F)C2CCCCC2)c(OC)n1 (stereo not drawn) [Example 46, 4-{2-Cyclohexyl-2-[2-(2,6-dimethoxy-pyridin-3-yl)-5,6-difluoro-benzoimidazol-1-yl]-ethoxy}-3-fluoro-benzoic acid] | 100
6 | Cc1nc(C(=O)O)ncc1OCC(C1CCCCC1)n1c(-c2ccc(Cl)cc2)nc2cc(F)c(F)cc21 (stereo not drawn) [Example 25, 5-{2-[2-(4-Chloro-phenyl)-5,6-difluoro-benzoimidazol-1-yl]-2-cyclohexyl-ethoxy}-4-methyl-pyrimidine-2-carboxylic acid] | 800
7 | O=C(O)c1c(F)cc(OCC(C2CCCCC2)n2c(-c3ccc(Cl)cc3)nc3cc(F)c(F)cc32)cc1F (single isomer, unassigned; (-)) [Example 44, (−)-4-{2-[2-(4-Chloro-phenyl)-5,6-difluoro-benzoimidazol-1-yl]-2-cyclohexyl-ethoxy}-2,6-difluoro-benzoic acid] | 400
8 | O=C(O)c1ccc(COCC(C2CCCCC2)n2c(-c3ccc(Cl)cc3)nc3cc(F)c(F)cc32)cc1 (single isomer, unassigned; (-)) [Example 68, (−)-4-{2-[2-(4-Chloro-phenyl)-5,6-difluoro-benzoimidazol-1-yl]-2-cyclohexyl-ethoxymethyl}-benzoic acid] | 60
9 | COc1ccc(-c2nc3cc(F)c(F)cc3n2C(COc2ccc(C(=O)O)cn2)C2CCCCC2)c(OC)n1 (stereo not drawn) [Example 73, 6-{2-Cyclohexyl-2-[2-(2,6-dimethoxy-pyridin-3-yl)-5,6-difluoro-benzoimidazol-1-yl]-ethoxy}-nicotinic acid] | 100
10 | O=C(O)c1ccc(S(=O)(=O)CC(C2CCCCC2)n2c(-c3ccc(Cl)cc3)nc3cc(F)c(F)cc32)cc1 (stereo not drawn) [Example 141, 4-{2-[2-(4-Chloro-phenyl)-5,6-difluoro-benzoimidazol-1-yl]-2-cyclohexyl-ethanesulfonyl}-benzoic acid] | 8200
11 | COc1cc(C(=O)O)ccc1COCC(C1CCCCC1)n1c(-c2ccc(Cl)cc2)nc2cc(F)c(F)cc21 (stereo not drawn) [Example 60, 4-{2-[2-(4-Chloro-phenyl)-5,6-difluoro-benzoimidazol-1-yl]-2-cyclohexyl-ethoxymethyl}-3-methoxy-benzoic acid] | 500
12 | COc1ccc(-c2nc3cc(F)c(F)cc3n2C(COc2ccc(C(=O)O)cn2)C2CCCCC2)c(OC)n1 (single isomer, unassigned; (-)) [Example 75, (−)-6-{2-Cyclohexyl-2-[2-(2,6-dimethoxy-pyridin-3-yl)-5,6-difluoro-benzoimidazol-1-yl]-ethoxy}-nicotinic acid] | 90

Continued, values first:

Row | IC50 [nM] | Compound
13 | 40 | O=C(O)c1cnc(OCC(C2CCCCC2)n2c(-c3ccc(Cl)cc3)nc3cc(F)c(F)cc32)c2ccsc12 (single isomer, unassigned; (-)) [Example 28, (−)-4-{2-[2-(4-Chloro-phenyl)-5,6-difluoro-benzoimidazol-1-yl]-2-cyclohexyl-ethoxy}-thieno[3,2-c]pyridine-7-carboxylic acid]
14 | 30 | Cc1cc(Cl)ccc1-c1nc2cc(F)c(F)cc2n1C(COc1ccc(C(=O)O)cn1)C1CCCCC1 (stereo not drawn) [Example 123, 6-{2-[2-(4-Chloro-2-methyl-phenyl)-5,6-difluoro-benzoimidazol-1-yl]-2-cyclohexyl-ethoxy}-nicotinic acid]
15 | 20 | COc1ccc(-c2nc3cc(F)c(F)cc3n2C(COc2c(F)cc(-c3nnn[nH]3)cc2F)C2CCCCC2)c(OC)n1 (stereo not drawn) [Example 129, 1-{1-Cyclohexyl-2-[2,6-difluoro-4-(1H-tetrazol-5-yl)-phenoxy]-ethyl}-2-(2,6-dimethoxy-pyridin-3-yl)-5,6-difluoro-1H-benzoimidazole]
16 | 20 | Cc1cc(-c2nnn[nH]2)cc(C)c1OCC(C1CCCC1)n1c(-c2ccc(Cl)cc2)nc2cc(F)c(F)cc21 (stereo not drawn) [Example 135, 2-(4-Chloro-phenyl)-1-{1-cyclopentyl-2-[2,6-dimethyl-4-(1H-tetrazol-5-yl)-phenoxy]-ethyl}-5,6-difluoro-1H-benzoimidazole]
17 | 20 | Fc1cc(-c2nnn[nH]2)cc(F)c1OCC(C1CCCCC1)n1c(-c2ccc(Cl)cc2)nc2ccccc21 (stereo not drawn) [Example 128, 2-(4-Chloro-phenyl)-1-{1-cyclohexyl-2-[2,6-difluoro-4-(1H-tetrazol-5-yl)-phenoxy]-ethyl}-1H-benzoimidazole]
18 | 20 | O=C(O)c1cc(F)c(OCC(C2CCCCCC2)n2c(-c3ccc(Cl)cc3)nc3cc(F)c(F)cc32)c(F)c1 (stereo not drawn) [Example 131, 4-{2-[2-(4-Chloro-phenyl)-5,6-difluoro-benzoimidazol-1-yl]-2-cycloheptyl-ethoxy}-3,5-difluoro-benzoic acid]
19 | 20 | COc1ccc(-c2nc3cc(F)c(F)cc3n2C(COc2c(C)cc(-c3nnn[nH]3)cc2C)C2CCCCC2)c(OC)n1 (single isomer, unassigned; (+)) [Example 100, (+)-1-{1-Cyclohexyl-2-[2,6-dimethyl-4-(1H-tetrazol-5-yl)-phenoxy]-ethyl}-2-(2,6-dimethoxy-pyridin-3-yl)-5,6-difluoro-1H-benzoimidazole]
20 | 10 | O=C(O)c1cc(F)c(OCC(C2CCCCCC2)n2c(-c3ccc(Cl)cc3)nc3cc(F)c(F)cc32)c(F)c1 (single isomer, unassigned; (+)) [Example 133, (+)-4-{2-[2-(4-Chloro-phenyl)-5,6-difluoro-benzoimidazol-1-yl]-2-cycloheptyl-ethoxy}-3,5-difluoro-benzoic acid]
21 | 5 | O=C(O)c1ccc(CCC(C2CCCCC2)n2c(-c3ccccc3)nc3cc(F)c(F)cc32)cc1 (stereo not drawn) [Example 142, 4-[3-Cyclohexyl-3-(5,6-difluoro-2-phenyl-benzoimidazol-1-yl)-propyl]-benzoic acid]
22 | 4 | Cc1cc(C(=O)O)cc(C)c1OCC(C1CCCCC1)n1c(-c2ccc(Cl)cc2)nc2cc(F)c(F)cc21 (single isomer, unassigned; (-)) [Example 55, (−)-4-{2-[2-(4-Chloro-phenyl)-5,6-difluoro-benzoimidazol-1-yl]-2-cyclohexyl-ethoxy}-3,5-dimethyl-benzoic acid]
23 | 2 | COc1ccc(-c2nc3cc(F)c(F)cc3n2C(COc2c(F)cc(C(=O)O)cc2F)C2CCCCC2)c(OC)n1 (stereo not drawn) [Example 96, 4-{2-Cyclohexyl-2-[2-(2,6-dimethoxy-pyridin-3-yl)-56-difluoro-benzoimidazol-1-yl]-ethoxy}-3,5-difluoro-benzoic acid]
24 | 2 | COc1ccc(-c2nc3cc(F)c(F)cc3n2C(COc2c(C)cc(-c3nnn[nH]3)cc2C)C2CCCCC2)c(OC)n1 (stereo not drawn) [Example 99, 1-{1-cyclohexyl-2-[2,6-dimethyl-4-(1H-tetrazol-5-yl)-phenoxy]-ethyl}-2-(2,6-dimethoxy-pyridin-3-yl)-5,6-difluoro-1H-benzoimidazole]
25 | 2 | Cc1cc(-c2nnn[nH]2)cc(C)c1OCC(C1CCCCC1)n1c(-c2ccc(Cl)cc2)nc2ccccc21 (single isomer, unassigned; (+)) [Example 113, (+)-2-(4-Chloro-phenyl)-1-{1-cyclohexyl-2-[2,6-dimethyl-4-(1H-tetrazol-5-yl)-phenoxy]-ethyl}-1H-benzoimidazole]
26 | 1 | COc1ccc(-c2nc3cc(F)c(F)cc3n2C(COc2c(F)cc(C(=O)O)cc2F)C2CCCCC2)c(OC)n1 (single isomer, unassigned; (-)) [Example 98, (−)-4-{2-Cyclohexyl-2-[2-(2,6-dimethoxy-pyridin-3-yl)-5,6-difluoro-benzoimidazol-1-yl]-ethoxy}-3,5-difluoro-benzoic acid]

same assay, conditions: h-IC50 Binding, 40 nM GST-FXR LBD on SPA beads, test compound 6×10^−9 M to 2.5×10^−5 M

Row | Compound | IC50 [nM]
27 | O=C(O)COc1ccc(OCC(C2CCCCC2)n2c(-c3ccc(Cl)cc3)nc3cc(F)c(F)cc32)cc1 (stereo not drawn) [Example 91, (4-{2-[2-(4-Chloro-phenyl)-5,6-difluoro-benzoimidazol-1-yl]-2-cyclohexyl-ethoxy}-phenoxy)-acetic acid] | 60
